The results in this text go back to US7357944B2, “Liposomal analgesic drug compositions prepared in GMV using an ammonium sulfate gradient” (New York University, priority 1998, dated 2008).

Structures are written as SMILES. Like-named read-outs stand apart in the source and are kept apart here.

Series [1] is described as follows: BUP partition between octanol and aqueous ammonium sulfate at various pH. The class given is physicochemical. The conditions noted are these: for logD: octanol/aqueous ammonium sulfate, read-out: BUP octanol/(NH4)2(SO4) partition coefficient (converted).
Series [2] in a line: pH-dependent aqueous solubility of BUP in 250 mM ammonium sulfate. It is filed as physicochemical. The following applies: more concentrated solutions, pH higher than about 6. Here is the method:
In the present case, the liposomes were incubated with a 50 mg/ml solution of BUP HCl for 45 minutes at 60° C. During this process, the extraliposomal pH should be maintained at a pH less than about 6, e.g. about 5.5, to ensure BUP solubility and prevent precipitation. […] The data was produced by adding various levels of BUP, as indicated, to 250 mM ammonium sulfate at differing pH's. The samples were vortexed and centrifuged, and the amount of dissolved BUP in the supernatant was determined. […] Again, aqueous solubility substantially decreases between pH 6 and 8.

The subject of a further series is male Swiss-Webster mice. Nature of the series: Analgesia (sensory block) after subcutaneous injection, response to cutaneous electrical stimulation. The conditions noted are these: 0.15 ml at 0.5%. It is filed as in vivo. Here is the method:
Analgesia was assessed in male Swiss-Webster mice, as described in Example 2, using response to cutaneous electrical stimulation. Prior to administering analgesic, the control vocalization threshold (current required to produce a vocalization response) was determined.
For testing, 150 μl of test solution was injected subcutaneously over the abdomen, and sensory block was assessed at regular intervals, i.e., 15 min for 0.5% BUP formulations and 30 min for 1% and 2% formulations. Failure to vocalize in response to the threshold current was taken as evidence of analgesia. Testing was terminated when two successive stimuli provoked a vocalization. Duration of analgesia was taken as the time from injection to the last stimulus at which no vocalization occurred.
(§1) Analgesia regressed within two hours (see FIG. 13).
The Institutional Animal Care and Use Committee approved all experiments. Male Swiss-Webster mice weighing 28±3 g were used. Animals had free access to food and water, and were maintained on a 12 hour dark-light cycle. Prior to testing, the hair overlying the abdomen was shaved. Analgesia was assessed using response to cutaneous electrical stimulation. […] The vocalization threshold was assessed prior to testing, and testing was carried out as described above.

For series [3], the system named is mice. The conditions noted are these: mouse, in vivo. Here is the method:
as §1
To determine the effect on overall body temperature of this treatment, the rectal temperature was measured in all animals cooled over the site of injection (ipsalateral) or over the contralateral abdomen, using both GMV-encapsulated bupivacaine and nonencapsulated (plain) bupivacaine. […] For FIG. 14A, cooling was initiated at zero hours (with administration) and discontinued at nine hours; for FIG. 14B, cooling was initiated at zero hours and discontinued at one hour. There were no significant differences observed as a function of the site of cooling. […] Animals in the GMV group (FIG. 14A) returned to baseline body temperature within about 10 minutes after cessation of cooling.

Series [4] deals with mice. The following applies: mouse, in vivo, sc.
Method: (§2) In a control group, mice were injected with 0.15 ml nonliposomal bupivacaine at a concentration of 0.5%, the highest normally tolerated. Cooling was applied either over the injection site or over the abdomen contralateral to the injection site.
In series [5] the test system is mice. In words: Tolerability of BUP concentration injected subcutaneously. The following applies: 0.15 ml injected.
Method: as §2

Consider `CCCCN1CCCCC1C(=O)Nc1c(C)cccc1C` (stereo not drawn) [BUP, bupivacaine], for which the logD in series [1] (pH 2) is 0.0253; in series [1] (pH 4), -0.42; in series [1] (pH 6), -0.456; in series [1] (pH 8), 1.18. Further, the “BUP, mg/ml in (NH4)2(SO4)” value in series [1] (pH 2) came to 2.30 mg/mL; in series [1] (pH 4) it was 3.32 mg/mL; in series [1] (pH 6), 3.62 mg/mL; in series [1] (pH 8), 0.32 mg/mL. For the same compound, the “BUP, mg/ml in octanol” value is 2.45 mg/mL in series [1] (pH 2), 1.25 mg/mL in series [1] (pH 4), 1.28 mg/mL in series [1] (pH 6) and 4.90 mg/mL in series [1] (pH 8). For the same compound, the “aqueous solubility of BUP (FIG. 2)” value in series [2] is on record as “large amounts of BUP precipitated”. Also, in the series with male Swiss-Webster mice (s.c., mice, with or without cooling (FIG. 13)), the “time in which analgesia regressed” value is listed as “two”. For the same compound, in the series on male Swiss-Webster mice (cooling at injection site or contralateral vs no cooling), the “effect of skin cooling (about 22° C.) on analgesia” value is listed as “no difference”. Moreover, the “delayed return to normal body temperature after cessation of cooling” value with mice [3] is 25 to 35 min. For the same compound, the toxicity entry with mice [4] was “proved toxic”. The “highest concentration normally tolerated” value in the series with mice [5] turned out to be 0.5%.
